Measurements: ChEMBL document CHEMBL5604063, “ASAP - DENV-2 NS2B-NS3 protease fluorescence dose response” (2024)
“And” between values parts separate entries of the source, which are not always exact repeats. Equal values may be shown once.

What was measured:
Genome polyprotein [1] = target: T1, Genome polyprotein (dengue virus type 2, UniProt P29990); type: functional, Thailand/16681/1984
Genome polyprotein [2] = target: T1, Genome polyprotein; type: functional, Thailand/16681/1984; remark: listed apart in the source

T1 sequence (P29990 1346-1475 limits assumed): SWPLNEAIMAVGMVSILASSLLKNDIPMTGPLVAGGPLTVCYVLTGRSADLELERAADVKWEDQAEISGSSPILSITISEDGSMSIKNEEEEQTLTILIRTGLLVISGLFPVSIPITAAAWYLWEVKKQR
T1 sequence (P29990 1476-2093 limits assumed): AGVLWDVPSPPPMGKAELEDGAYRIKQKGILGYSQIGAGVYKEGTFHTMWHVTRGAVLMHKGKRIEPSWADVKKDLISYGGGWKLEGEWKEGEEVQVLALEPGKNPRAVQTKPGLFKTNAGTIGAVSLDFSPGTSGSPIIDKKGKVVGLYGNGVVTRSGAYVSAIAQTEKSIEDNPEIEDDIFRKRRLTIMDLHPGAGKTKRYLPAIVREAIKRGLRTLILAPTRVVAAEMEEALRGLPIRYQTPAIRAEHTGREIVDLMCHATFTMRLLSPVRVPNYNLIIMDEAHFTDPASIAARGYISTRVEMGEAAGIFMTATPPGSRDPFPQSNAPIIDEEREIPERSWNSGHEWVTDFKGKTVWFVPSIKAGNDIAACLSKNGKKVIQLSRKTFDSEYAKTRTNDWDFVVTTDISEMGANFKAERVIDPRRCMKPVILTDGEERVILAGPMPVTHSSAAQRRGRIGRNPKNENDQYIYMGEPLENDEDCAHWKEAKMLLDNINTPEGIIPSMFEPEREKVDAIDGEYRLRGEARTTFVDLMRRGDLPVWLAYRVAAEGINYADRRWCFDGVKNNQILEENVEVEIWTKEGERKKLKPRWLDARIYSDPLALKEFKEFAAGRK

Compound | IC50 (Genome polyprotein [1]) | IC50 (Genome polyprotein [2])
N#Cc1cccc(-c2nc3c(C(=O)Nc4ccc(F)cc4)cc(Cl)cc3[nH]2)c1 | > 100 µM | > 99.5 µM
NCc1cccc(NC(=O)c2cc(Br)cnc2OCC2CC2)c1 | > 100 µM | > 99.5 µM
NCCc1ccc([C@H]2C[C@@H]2c2cc(Cl)cc(NC(=O)OCc3ccccc3)c2)cc1 | 58.9 µM and 31.6 µM | 7.22 µM and 8.69 µM
N#Cc1c[nH]c2ccc(C(=O)Nc3ccc4c(c3)CNC4)cc12 | > 100 µM | > 99.5 µM
O=C(Nc1ccc2c(c1)CNC2)c1ccc2c(c1)C1(CC1)C(=O)N2 | > 100 µM | > 99.5 µM
O=C(Nc1ccc2c(c1)C[C@H](O)C2)c1cc(Cl)cc2[nH]ncc12 | > 100 µM | > 99.5 µM
O=C(NCC1CCOCC1)[C@H](Nc1ccc2c(c1)CNC2)c1cc(Cl)cc2[nH]ncc12 | > 100 µM | > 99.5 µM
O=C(Nc1cc(Cl)cc([C@H]2C[C@@H]2c2cccc(-c3nnn[nH]3)c2)c1)OCc1ccccc1 | 19.1 µM | 16.2 µM
COCCN1C(=O)CCc2cc(NC(=O)c3cc(C4CC4)n(C)c3C)ccc21 | > 100 µM | > 99.5 µM
CN(C(=O)c1cc(Cl)cc2[nH]ncc12)c1ccc2c(c1)CNC2 | > 100 µM | > 99.5 µM
N#C[C@]1(Nc2ccc3c(c2)CNC3)C(=O)Nc2ccc(Cl)cc21 | > 100 µM | > 99.5 µM
COC(=O)N1CCc2cc(NC(=O)c3cc(C4CC4)n(C)c3C)ccc21 | > 100 µM | > 99.5 µM
O=C1Nc2ncccc2C[C@H]1NCc1n[nH]c2ccccc12 | > 100 µM | > 99.5 µM
Cc1c(C(=O)Nc2cccc(-c3cccnc3)c2)cc(C2CC2)n1C | > 100 µM | > 99.5 µM
CCOCCS(=O)(=O)N1CCC([C@H](NC(=O)OCc2ccccc2)C(=O)Nc2cccc(CN)c2)CC1 | > 100 µM | > 99.5 µM
O=C1Cc2c(cccc2C(=O)Nc2ccc3c(c2)CNC3)N1 | 45.6 µM and 19.1 µM | 11.8 µM and 17.4 µM and 20.7 µM
C=CC[C@H](Nc1cc(Cl)cc(NC(=O)OCc2ccccc2)c1)c1cccc(CN)c1 | > 100 µM | 37.5 µM
NC(=O)COc1ccc(Br)cc1[C@H](Nc1ccc2c(c1)CNC2)C(=O)NCC(F)F | > 100 µM | > 99.5 µM
O=C(NCCC1CC1)[C@H](Nc1ccc2c(c1)CNC2)c1cc(Cl)cc(C2CC2)c1 | > 100 µM | > 99.5 µM
Cn1ncc2c(C(=O)Nc3ccc4c(c3)CNC4)cc(Br)cc21 | > 100 µM | > 99.5 µM
O=C1NCc2ccc(NC(=O)c3cc(Cl)cc4[nH]ncc34)cc21 | > 100 µM | > 99.5 µM

Compound | IC50 (Genome polyprotein [1]) | IC50 (Genome polyprotein [2])
CNC(=O)C[C@H](Nc1ccccn1)c1cc(Cl)cc(Br)c1 | > 100 µM | > 99.5 µM
NCc1cccc(NC(=O)[C@H]2CCc3nnc(-c4ccc(F)cc4)n3C2)c1 | > 100 µM | > 99.5 µM
CCn1c(=O)c(N2CC[C@H](CO)C2)nc2cc(C(=O)NCc3ccccc3)ccc21 | > 100 µM | > 99.5 µM
O=C(Nc1ccc2c(c1)CNC2)c1ccc(F)c2[nH]ncc12 | > 100 µM | 69.7 µM
CC(C)(CNCc1c[nH]c2ccccc12)c1cccnc1 | > 100 µM | > 99.5 µM
c1ccc(N2CCN(Cc3c[nH]c4ccccc34)CC2)nc1 | > 100 µM | > 99.5 µM
NCc1cn(CCNC(=O)c2cc(Cl)cc(NC(=O)OCc3ccccc3)c2)nn1 | > 100 µM | > 99.5 µM
NC[C@H]1CC[C@@H](NC(=O)c2cc(Cl)cc3[nH]ncc23)CC1 | > 100 µM | > 99.5 µM
CN1C(=O)[C@H](c2cc(Cl)cc(NC(=O)OCc3ccccc3)c2)N(c2cccc(-c3nn[nH]n3)c2)C1=O | 19 µM | 21.8 µM
O=C(Nc1cccc(-c2nnn[nH]2)c1)c1ccc(-c2cccnc2)s1 | > 100 µM | > 99.5 µM
C[C@H]1C[C@H]1c1cc(C(=O)Nc2cc(-c3cccnc3)ccn2)no1 | > 100 µM | > 99.5 µM
COc1cccc(-c2nc3c(C(=O)Nc4ccc5c(c4)CNC5)cc(F)cc3[nH]2)c1 | > 100 µM | 8.12 µM and 5.22 µM
O=C(O)Cc1cc2c(c(Cc3c[nH]c4ccc(Cl)cc34)c1)OCC2 | > 100 µM | > 99.5 µM
O=C(Nc1ccc2c(n1)CNC2)c1cc(Cl)cc2[nH]ncc12 | > 100 µM | > 99.5 µM
CN1CCC[C@H](c2nc3c(C(=O)Nc4ccc5c(c4)CNC5)cc(F)cc3[nH]2)C1=O | > 100 µM | > 99.5 µM
Cc1c(C(=O)Nc2nccc3c2CNCC3)cc(C2CC2)n1C | > 100 µM | > 99.5 µM
O=C(Nc1ccc2c(c1)CN[C@H]2CC1CC1)c1cc(F)cc2[nH]ncc12 | 31.3 µM and 22.1 µM | 37.9 µM
Clc1ccc2nc(C3CCOCC3)n(Cc3ccc4c(c3)CNC4)c2c1 | > 100 µM | > 99.5 µM
NCc1cccc(NC(=O)[C@@H](NC(=O)OCc2ccccc2)c2ccc(OCCN3CCCCC3)cc2)c1 | > 100 µM | > 99.5 µM
O=C(Nc1ccc2c(c1)CNC2)c1cc(Cl)cc2nn(C3COC3)cc12 | > 100 µM | > 99.5 µM
